Legend:
PF4 = PF4 (Homo sapiens, UniProt P02776); details: expected because compound is free of 2-O sulfated iduronic acid residues
Human factor Xa = details: approximately; heparin-dependent factor Xa inhibition, commercial heparin as standard
Experimental: Human factor Xa (10.4 mg/ml 50% glycerol, 820 units/mg) (Hematologic Technologies, Essex Junction, Vt.) was used for assay. Factor Xa was diluted 1:200 with PBS containing 1 mg of bovine serum albumin (4 units/ml and 15 units/ml, respectively). ATIII (2.5 mg/ml) (GlycoMed, CA) was diluted 1:200 to give a 2×10^7 M stock solution. The chromogenic substrate S-2765 was from Chromogenix (West Chester, Ohio) and the stock solution of 1 mM with 1 mg/ml Polybrene in water was prepared. Heparin (174 international units/mg, Sigma) was used as a standard. The N-deacetylated N-sulfated polysaccharide product was used for factor Xa studies (10 ng). The protocol involved adding 25 μl of ATIII (2×10 7 M) to 25 μl of a serial dilution of heparin standards or N-deacetylated N-sulfated polysaccharide in Tris-EDTA (50 mM Tris, 7.5 mM EDTA, and 175 mM NaCl (pH 8.4)) buffer. The reaction was incubated at 37° C. for 75 seconds. Factor Xa (25 μl, 4 units/ml) was added. After incubating at 37° C. for 195 seconds, 25 μl of S-2765 was added. The absorbance at 405 nm was read every minute for 10 minutes using a Beckman UV spectrometer.

[1] = molecular target: anti-thrombin III (ATIII) (Homo sapiens, UniProt P01008); details: compared to in vitro modified commercial heparin
Experimental: PAP^35S-radiolabeled N-deacetylate N-sulfate derivatives of non-sulfated N-acetyl heparosan (HS) polysaccharides (10, 000 counts) was reacted with […] ATIII. Complex formation was analyzed by non-denaturing gel electrophoresis (4% polyacrylamide). The mobility of radiolabeled N-deacetylate N-sulfate derivatives of non-sulfated N-acetyl heparosan (HS) polysaccharides was compared with and without ATIII.
Heparin-ATIII binding buffer contained 12% glycerol, 20 mM Tris-HCl (pH 7.9), 100 mM KCl, 1 mM EDTA, and 1 mM DTT. For a typical 20 μl binding reaction, radiolabeled polysaccharide (10,000 cpm) was mixed with AT-III (1 μg) in the binding buffer. The reaction mixture was incubated at room temperature (23° C.) for 20 min and was then applied to a 4.5% native polyacrylamide gel (with 0.1% of bis-acrylamide). The gel buffer was 10 mM Tris (pH 7.4) and 1 mM EDTA, and the electrophoresis buffer was 40 mM Tris (pH 8.0), 40 mM acetic acid, 1 mM EDTA. The gel was run at 6 volts/cm for 1-2 hours with an SE 250 Mighty Small II gel apparatus (Hoefer Scientific Instruments, San Francisco). After electrophoresis, the gel was transferred to 3 MM paper and dried under vacuum. The dried gel was autoradiographed by a PhosphorImager 445S1 (Molecular Dynamics, Sunnyvale, Calif.). The image was analyzed with NIH Image 1.60 and band intensities were evaluated.

PF4, sequence (P02776 32-101): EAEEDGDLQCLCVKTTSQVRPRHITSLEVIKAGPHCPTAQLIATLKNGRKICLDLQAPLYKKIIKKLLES
anti-thrombin III (ATIII), sequence (P01008 33-464, species assumed): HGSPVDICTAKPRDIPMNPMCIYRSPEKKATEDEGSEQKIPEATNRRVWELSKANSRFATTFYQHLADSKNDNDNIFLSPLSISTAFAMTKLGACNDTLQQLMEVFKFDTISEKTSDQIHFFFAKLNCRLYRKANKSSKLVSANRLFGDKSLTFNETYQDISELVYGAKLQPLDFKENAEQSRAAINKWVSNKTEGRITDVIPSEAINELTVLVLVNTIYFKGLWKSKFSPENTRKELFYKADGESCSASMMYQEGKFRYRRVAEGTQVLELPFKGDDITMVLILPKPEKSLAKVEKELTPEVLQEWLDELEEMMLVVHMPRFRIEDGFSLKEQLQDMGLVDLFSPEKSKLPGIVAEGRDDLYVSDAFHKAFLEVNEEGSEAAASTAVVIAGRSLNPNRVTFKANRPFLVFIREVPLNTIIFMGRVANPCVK

N-deacetylate N-sulfate derivatives of non-sulfated N-acetyl heparosan (HS) polysaccharide [Formula I]
ability to bind to PF4 (PF4): reduced ability to bind to PF4
specific activity relative to commercial heparin (Human factor Xa): 4-5 times
percentage of compound bound to ATIII compared to commercial heparin [1]: greater percentage
